Data set [1] deals with recombinant NL4-3 virus (nef section replaced with Renilla luciferase gene) in MT-2 cells. Nature of the data set: HIV cell culture assay (antiviral activity, luciferase readout). The class given is cell-based. Conditions: Renilla, NL43, MT-2 cells infected for 4-5 days with recombinant NL4-3 Renilla luciferase virus. In outline:
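Serial compound dilutions tested in MT-2 cells infected for 4-5 days with 293T-derived NL4-3 virus carrying Renilla luciferase in place of part of nef. Antiviral activity quantified as luciferase activity, read with a live-cell substrate.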

A short description of data set [2]: Compound cytotoxicity, XTT-based colorimetric assay. The class given is cell-based. The note with it: human, uninfected MT2 cells, day 4, XTT. In outline:
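Run under the antiviral-assay protocol but without virus. Viability was read on day 4 and CC50 values were derived from the readout.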

A word on the EC50: it is the concentration needed to bring the measured effect to its halfway point. Usually CC50 stands for the concentration giving 50% cytotoxicity. Consider `CN(C(=O)[C@H](Cc1cc(F)cc(F)c1)NC(=O)NS(=O)(=O)N1CCc2ccccc2C1)c1ccc2scnc2c1` [CA-157], for which the EC50 in data set [1] came out at 880 nM. It took 99700 nM to reach half-maximal cytotoxicity in data set [2] (CC50 at 4 days).
The corresponding values for `COc1ccc(N(C)C(=O)[C@H](Cc2ccccc2)NC(=O)NS(=O)(=O)Nc2cccc(C#N)c2)cc1` [CA-9] are 260 nM and > 100000 nM.
The corresponding values for `CN(C(=O)[C@H](Cc1cc(F)cc(F)c1)NC(=O)NS(=O)(=O)N1CCCc2ccccc21)c1ccc2scnc2c1` [VN-5] are 40 nM and 95900 nM.
The corresponding values for `CN(C(=O)[C@H](Cc1cc(F)cc(F)c1)NC(=O)NS(=O)(=O)n1ncc2c(Cl)cccc21)c1ccc2scnc2c1` [ZY-19] are 360 nM and > 33300 nM.
In the case of `CN(C(=O)[C@H](Cc1cc(F)cc(F)c1)NC(=O)NS(=O)(=O)N1CCNC(=O)C1)c1ccc2scnc2c1` [CA-151], the EC50 in data set [1] was 1070 nM. Also, in data set [2], the CC50 at 4 days is > 100000 nM.
The corresponding values for `CN(C(=O)[C@H](Cc1cc(F)cc(F)c1)NC(=O)NS(=O)(=O)N1CC[C@@H](O)C1)c1ccc2scnc2c1` [VN-27] are 90 nM and > 100000 nM.
For `Cc1ncc(N(C)C(=O)[C@H](Cc2cc(F)cc(F)c2)NC(=O)NS(=O)(=O)N2CCc3cccnc32)cn1` [GW-14], the EC50 in data set [1] was found to be 1610 nM. Besides, in data set [2], the CC50 at 4 days was > 100000 nM.
As for `CN(C(=O)[C@H](Cc1cc(F)cc(F)c1)NC(=O)NS(=O)(=O)N1CCc2c(Cl)ccnc21)c1ccc2scnc2c1` [BB-8], the EC50 in data set [1] amounted to 440 nM. Also, the CC50 at 4 days in data set [2] turned out to be 82400 nM.
Turning to `CN(C(=O)[C@H](Cc1cc(F)cc(F)c1)NC(=O)NS(=O)(=O)n1ccc2cccnc21)c1ccc2scnc2c1` [VN-8], in data set [1], the EC50 came to 50 nM. Besides, the CC50 at 4 days in data set [2] is > 100000 nM.
Turning to `COc1ccc(N(C)C(=O)[C@H](Cc2ccccc2)NC(=O)NS(=O)(=O)Nc2ccccc2OC)cc1` [JB-16], the EC50 in data set [1] was found to be 170 nM. Also, in data set [2], the CC50 at 4 days is > 100000 nM.
The corresponding values for `COc1ccc(N(C)C(=O)[C@H](Cc2ccccc2)NC(=O)NS(=O)(=O)Nc2ccccc2C#N)cc1` [CA-6] are 380 nM and > 100000 nM.
The corresponding values for `CN(C(=O)[C@H](Cc1cc(F)cc(F)c1)NC(=O)NS(=O)(=O)Nc1cccnc1)c1ccc2scnc2c1` [CA-123] are 160 nM and > 100000 nM.
The corresponding values for `CN(C(=O)[C@H](Cc1ccccc1)NC(=O)NS(=O)(=O)N(C)c1ccccc1Cl)c1ccc2ncccc2c1` [JB-11] are 40 nM and > 100000 nM.
Consider `CC(C)Oc1ccc(N(C)C(=O)[C@H](Cc2cc(F)cc(F)c2)NC(=O)NS(=O)(=O)N2CCc3cccnc32)cn1` [BB-12], for which, in data set [1], the EC50 was determined as 20 nM. In data set [2], this compound showed a CC50 at 4 days of 94900 nM.
Consider `COc1ccc(N(C)C(=O)[C@H](Cc2ccccc2)NC(=O)NS(=O)(=O)N(C)c2ccccc2C)cc1` [JB-18], for which the EC50 in data set [1] turned out to be 560 nM. Besides, the CC50 at 4 days in data set [2] is > 100000 nM.
The corresponding values for `COc1ccc(N(C)C(=O)[C@H](Cc2ccccc2)NC(=O)NS(=O)(=O)Nc2ccc(S(=O)(=O)N3CCCC3)cc2)cc1` [CA-43] are 300 nM and > 100000 nM.
The corresponding values for `COc1ccc(N(C)C(=O)[C@H](Cc2ccccc2)NC(=O)NS(=O)(=O)N(C)c2ccccc2Cl)cc1` [JB-6] are 660 nM and > 100000 nM.
For `COc1ccc(N(C)C(=O)[C@H](Cc2ccccc2)NC(=O)NS(=O)(=O)Nc2cccc(C)c2)cc1` [JB-24], in that order: 100 nM and > 100000 nM.
Consider `COc1ccc(N(C)C(=O)[C@H](Cc2ccccc2)NC(=O)NS(=O)(=O)NCC(=O)N2CCN(c3ccccc3)CC2)cc1` [CA-58], for which the EC50 in data set [1] was 7450 nM. The CC50 at 4 days in data set [2] was > 100000 nM.
For `CN(C(=O)[C@H](Cc1cc(F)cc(F)c1)NC(=O)NS(=O)(=O)Nc1ccccc1)c1ccc2scnc2c1` [CA-115], in that order: 60 nM and > 100000 nM.
Take `COc1ccc(N(C)C(=O)[C@H](Cc2ccccc2)NC(=O)NS(=O)(=O)NCc2ccccc2F)cc1` [JB-38]: the EC50 in data set [1] was found to be 1600 nM. Also, the CC50 at 4 days in data set [2] was > 100000 nM.
The corresponding values for `CN(C(=O)[C@H](Cc1cc(F)cc(F)c1)NC(=O)NS(=O)(=O)N(C)C)c1ccc(OC(F)F)cc1` [BB-37] are 100 nM and > 100000 nM.
The corresponding values for `CN(C(=O)[C@H](Cc1cc(F)cc(F)c1)NC(=O)NS(=O)(=O)N1CCC(c2ccccc2)CC1)c1ccc2scnc2c1` [CA-156] are 8320 nM and 99200 nM.
The corresponding values for `COc1ccc(N(C)C(=O)[C@H](Cc2ccccc2)NC(=O)NS(=O)(=O)n2c(C)cc3cc(F)c(O)cc32)cc1` [CA-65] are 4040 nM and > 100000 nM.
In the case of `COc1ccc(N(C)C(=O)[C@H](Cc2ccccc2)NC(=O)NS(=O)(=O)Nc2cc(F)ccc2F)cc1` [JB-48], the EC50 in data set [1] amounted to 170 nM. Besides, in data set [2], the CC50 at 4 days was > 100000 nM.
For `COc1ccc(N(C)C(=O)[C@H](Cc2cc(F)cc(F)c2)NC(=O)NS(=O)(=O)N2CCc3cccnc32)cn1` [GW-11], in that order: 90 nM and > 100000 nM.
For `CN(C(=O)[C@H](Cc1cc(F)cc(F)c1)NC(=O)NS(=O)(=O)N(C)C)c1ccc2scnc2c1` [VN-16], in that order: 30 nM and > 100000 nM.
For `COc1ccc(N(C)C(=O)[C@H](Cc2ccccc2)NC(=O)NS(=O)(=O)Nc2cccc(F)c2)cc1` [CA-10], in that order: 70 nM and > 100000 nM.
As for `COc1ccc(N(C)C(=O)[C@H](Cc2ccccc2)NC(=O)NS(=O)(=O)Nc2ncccn2)cc1` [JB-29], the EC50 in data set [1] was found to be 1600 nM. In addition, the CC50 at 4 days in data set [2] was > 100000 nM.
For `CCCc1ccc(N(C)C(=O)[C@H](Cc2cc(F)cc(F)c2)NC(=O)NS(=O)(=O)N2CCc3cccnc32)cc1` [BB-11], in that order: 10 nM and 66300 nM.
On to `COc1ccc(N(C)C(=O)[C@H](Cc2ccccc2)NC(=O)NS(=O)(=O)Nc2ccccc2NC(C)=O)cc1` [CA-42], for which, in data set [1], the half-maximal effective concentration (EC50) stood at 4120 nM. Moreover, the CC50 at 4 days in data set [2] was > 100000 nM.
The corresponding values for `COc1ccc(N(C)C(=O)[C@H](Cc2ccccc2)NC(=O)NS(=O)(=O)N2CCCc3ccccc32)cc1` [JB-2] are 110 nM and > 33300 nM.
The corresponding values for `COc1ccc(N(C)C(=O)[C@H](Cc2ccccc2)NC(=O)NS(=O)(=O)Nc2cc(C)cc(C)c2)cc1` [CA-14] are 120 nM and > 33300 nM.
For `CN(C(=O)[C@H](Cc1cc(F)cc(F)c1)NC(=O)NS(=O)(=O)N1CCc2nccnc21)c1ccc2scnc2c1` [ZY-22], in that order: 520 nM and > 100000 nM.
Consider `Cc1cnc(CNS(=O)(=O)NC(=O)N[C@@H](Cc2cc(F)cc(F)c2)C(=O)N(C)c2ccc3scnc3c2)cn1` [CA-150], for which, in data set [1], the EC50 turned out to be 460 nM. Besides, in data set [2], the CC50 at 4 days was > 100000 nM.
The corresponding values for `COc1ccc(N(C)C(=O)[C@H](Cc2ccccc2)NC(=O)NS(=O)(=O)NCc2cccc(F)c2)cc1` [JB-57] are 6430 nM and > 100000 nM.
Turning to `CN(C(=O)[C@H](Cc1cc(F)cc(F)c1)NC(=O)NS(=O)(=O)NCC1CC1)c1ccc2scnc2c1` [CA-127], the EC50 in data set [1] was 60 nM. Also, the CC50 at 4 days in data set [2] was > 100000 nM.
The corresponding values for `COc1ccc(NS(=O)(=O)NC(=O)N[C@@H](Cc2ccccc2)C(=O)N(C)c2ccc(OC)cc2)cc1` [JB-27] are 150 nM and > 100000 nM.
For `COc1ccc(N(C)C(=O)[C@H](Cc2ccccc2)NC(=O)NS(=O)(=O)NCc2ccccc2)cc1` [JB-56], in that order: 1870 nM and > 100000 nM.
For `CN(C(=O)[C@H](Cc1cc(F)cc(F)c1)NC(=O)NS(=O)(=O)N1CCc2cccnc21)c1ccc2sc(=O)n(C)c2c1` [GW-19], in that order: 60 nM and > 100000 nM.
Regarding `COc1ccc(N(C)C(=O)[C@H](Cc2ccccc2)NC(=O)NS(=O)(=O)Nc2ccc3c(c2)CCC3)cc1` [CA-11], the EC50 in data set [1] came out at 70 nM. In addition, in data set [2], the CC50 at 4 days is > 100000 nM.
The corresponding values for `CC(C)N(C)S(=O)(=O)NC(=O)N[C@@H](Cc1cc(F)cc(F)c1)C(=O)N(C)c1ccc2scnc2c1` [CA-147] are 80 nM and > 100000 nM.
For `CN(C(=O)[C@H](Cc1cc(F)cc(F)c1)NC(=O)NS(=O)(=O)N1CCc2cccnc21)c1ccc(C2CC2)cc1` [GW-10], the EC50 in data set [1] is 30 nM. Also, the CC50 at 4 days in data set [2] amounted to 91000 nM.
The corresponding values for `COc1ccc(N(C)C(=O)[C@H](Cc2ccccc2)NC(=O)NS(=O)(=O)N2CC(c3ccccc3)C2)cc1` [JB-8] are 2690 nM and > 100000 nM.
With `CCOc1ccc(NS(=O)(=O)NC(=O)N[C@@H](Cc2ccccc2)C(=O)N(C)c2ccc(OC)cc2)cc1` [JB-81], the EC50 in data set [1] was determined as 260 nM. In addition, in data set [2], the CC50 at 4 days was > 100000 nM.
The corresponding values for `COc1ccc(N(C)C(=O)[C@H](Cc2ccccc2)NC(=O)NS(=O)(=O)n2ccc3ccncc32)cc1` [CA-61] are 400 nM and > 100000 nM.
For `CN(C)C(=O)[C@H]1CCCN1S(=O)(=O)NC(=O)N[C@@H](Cc1cc(F)cc(F)c1)C(=O)N(C)c1ccc2scnc2c1` [BB-26], in that order: 310 nM and > 100000 nM.
For `COc1ccc(N(C)C(=O)[C@H](Cc2ccccc2)NC(=O)NS(=O)(=O)Nc2ccc3c(c2)CS(=O)(=O)C3)cc1` [CA-48], in that order: 260 nM and > 100000 nM.
On to `COc1ccc(N(C)C(=O)[C@H](Cc2ccccc2)NC(=O)NS(=O)(=O)Nc2ccc(Cl)cc2)cc1` [JB-22], for which the EC50 in data set [1] amounted to 70 nM. Moreover, the CC50 at 4 days in data set [2] was > 100000 nM.
For `COc1ccc(N(C)C(=O)[C@H](Cc2ccccc2)NC(=O)NS(=O)(=O)Nc2cccc(NS(C)(=O)=O)c2)cc1` [CA-46], in that order: 11600 nM and > 100000 nM.
